One series deals with PC-3 cell lines. The series can be described thus: Prostate cancer model, PC-3 cell lines subcutaneously transplanted into nude mice. Type of series: in vivo. The settings on record: 50 mg/kg orally once a day. The protocol: A prostate cancer model was established by subcutaneously transplanting PC-3 cell lines into nude mice, and the mice were divided into two groups (group 1: vehicle administration group (10% DSMO, 30% PEG400, 60% DW), group 2: 50 mg/kg Example 27 compound administration group). The drug was administered orally once a day for 12 times. To evaluate the therapeutic efficacy, tumors were […] before drug administration and on days 3, 6, 8, 10, 12, and 14 after drug administration, and tumor volumes were measured. Tumor volume (mm^3) was calculated as follows (tumor volume (mm^3)=(A×B^2)/2, where A=tumor long axis, B=tumor short axis), and the results are shown in FIG. 2.
Meanwhile, on day 12 of drug administration, the tumor was removed and its weight was measured, the results are shown in FIG. 3, and a photograph of the removed tumor was taken and shown in FIG. 4.

For a further series, the target named is HDAC2 (Homo sapiens, UniProt Q92769). The series can be described thus: Selective inhibitory effect, HDAC Fluorogenic assay kit, HDAC2. The note with it: read-out: HDAC2 enzyme activity (%).
In series [1] the test system is PC-3 prostate cancer cells. The series can be described thus: Prostate cancer cell growth inhibition, CCK-8 assay. The class given is cell-based, human. The settings on record: various concentrations; 24 hours and 48 hours; FIG. 1. As to the method:
PC-3, a human-derived prostate cancer cell line, was cultured with RPMI1640 (10% fetal bovine serum, 1% Penicillin Streptomycin) culture medium at 37° C., 5% CO2 condition. All cells in the experiment were subcultured when they reached a confluency of approximately 80% to 90%, and only cells that had not passed 20 passages were used.
After culturing, 10 L CCK-8 reagent was added and the absorbance was measured after 1 hour. The absorbance was measured at 450 nm using a microplate reader [BMG Labtech (Offenburg, Germany)].
Background: Tetrazolium assays rely on reduction of a dye to a coloured formazan, in cell work by metabolically active cells.

Series [2] can be described thus: Body weight of mice during drug administration, liver cancer model. The note with it: 50 mg/kg once a day; drug administration period; FIG. 7D. The class given is in vivo, nude mice. The protocol:
In addition, a liver cancer model was established by subcutaneously transplanting Huh-7 cell lines into nude mice. After establishing the liver cancer model, the mice were divided into two groups (group 1: vehicle administration group, group 2: 50 mg/kg Example 27 compound administration group). The drug was administered once a day for 12 times. To evaluate therapeutic efficacy, tumor volume was measured before drug administration and on days 4, 7, 10, 13, and 15 after drug administration. Tumor volume (mm^3) was calculated as follows (tumor volume (mm^3)=(A×B^2)/2, where A=tumor long axis, B=tumor short axis). Body weight was measured before administration and on days 4, 7, 10, 13, and 15 after drug administration during the drug administration period. Tumor was excised on day 15 after drug treatment and body weight was measured.

The target in another series is HDAC1 (Homo sapiens, UniProt Q13547). The series can be described thus: Selective inhibitory effect, HDAC Fluorogenic assay kit, HDAC1. The settings on record: read-out: HDAC1 enzyme activity (%).
The target in series [3] is T1, HDAC8 (Homo sapiens, UniProt Q9BY41).
T1 construct: purchased BPS bioscience
T1 sequence (Q9BY41 1-377): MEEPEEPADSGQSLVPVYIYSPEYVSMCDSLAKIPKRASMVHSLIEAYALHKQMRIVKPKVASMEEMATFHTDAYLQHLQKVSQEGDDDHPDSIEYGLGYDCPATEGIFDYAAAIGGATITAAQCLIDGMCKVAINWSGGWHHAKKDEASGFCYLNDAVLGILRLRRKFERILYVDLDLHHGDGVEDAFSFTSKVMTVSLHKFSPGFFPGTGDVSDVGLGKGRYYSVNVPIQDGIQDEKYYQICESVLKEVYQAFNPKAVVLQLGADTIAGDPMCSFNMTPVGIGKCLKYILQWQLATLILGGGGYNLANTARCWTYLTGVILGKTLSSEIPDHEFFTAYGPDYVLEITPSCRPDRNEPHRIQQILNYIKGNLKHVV
The series can be described thus: Selective inhibitory effect, HDAC Fluorogenic assay kit, HDAC8. The class given is biochemical. The settings on record: versus HDAC1, 2, 3, 4, 6, 7, 9, 10, 11; 10 μM.
Protocol: (§1) For analysis, HDAC substrate 3 was diluted in buffer to a concentration of 200 μM and used in HDAC 1, 2, 3, 6, and 10 assays, HDAC substrate 2A was diluted in buffer to a concentration of 200 μM and used in HDAC 4, 7, 9, and 11 assays, HDAC substrate 2A was diluted in buffer to a concentration of 20 μM and used in HDAC 8 assays. For the HDAC 11 assay, a dedicated buffer included in the kit was used separately, and the same buffer was used for the remaining assays. The compound of the Example was diluted to 1 mM (1% DMSO concentration) using DMSO to obtain a final concentration of 10 μM, and prepared by diluting 1/10 with assay buffer. In a 96-well black round-bottom plate, 5 μL of the diluted compound of the Example, 5 μL of the diluted HDAC substrate, 5 μL of BSA (1 mg/ml), 5 μL of the HDAC enzyme diluted to the appropriate concentration, and 30 μL of assay buffer were added, and the enzyme reaction was performed at 37° C. for 30 minutes. […] Afterwards, 50 μL of 2×HDAC developer was added to each well. After reacting for 15 minutes at room temperature, the fluorescence values at excitation wavelengths of 350-380 nm and emission wavelengths of 440-460 nm were measured using a microplate reader (Synergy Neo).

Series [4] deals with T1, HDAC8. The series can be described thus: HDAC8 inhibitory activity analysis (in vitro), RFU analysis, HDAC Fluorogenic assay kit. The class given is biochemical. The settings on record: 10 μM; compared with TSA or SAHA.
Protocol: The compound of the Example was diluted to 1 mM (1% DMSO concentration) using DMSO to obtain a final concentration of 10 μM, and prepared by diluting 1/10 with assay buffer. In a 96-well black round-bottom plate, 5 μL of the diluted compound of the Example, 5 μL of the diluted HDAC substrate 2A, 5 μL of BSA (1 mg/mL), 5 µL of the HDAC8 enzyme diluted to an appropriate concentration, and 30 μL of assay buffer were added, and the enzyme reaction was performed at 37° C. for 30 minutes. […] Afterwards, 50 μL of 2×HDAC developer was added to each well. After reacting for 15 minutes at room temperature, the fluorescence values at excitation wavelengths of 350-380 nm and emission wavelengths of 440-460 nm were measured using a microplate reader (Synergy Neo).
For a further series, the target named is HDAC3 (Homo sapiens, UniProt O15379). The series can be described thus: Selective inhibitory effect, HDAC Fluorogenic assay kit, HDAC3. The settings on record: read-out: HDAC3 enzyme activity (%).
Chain of HDAC3 (O15379 whole entry): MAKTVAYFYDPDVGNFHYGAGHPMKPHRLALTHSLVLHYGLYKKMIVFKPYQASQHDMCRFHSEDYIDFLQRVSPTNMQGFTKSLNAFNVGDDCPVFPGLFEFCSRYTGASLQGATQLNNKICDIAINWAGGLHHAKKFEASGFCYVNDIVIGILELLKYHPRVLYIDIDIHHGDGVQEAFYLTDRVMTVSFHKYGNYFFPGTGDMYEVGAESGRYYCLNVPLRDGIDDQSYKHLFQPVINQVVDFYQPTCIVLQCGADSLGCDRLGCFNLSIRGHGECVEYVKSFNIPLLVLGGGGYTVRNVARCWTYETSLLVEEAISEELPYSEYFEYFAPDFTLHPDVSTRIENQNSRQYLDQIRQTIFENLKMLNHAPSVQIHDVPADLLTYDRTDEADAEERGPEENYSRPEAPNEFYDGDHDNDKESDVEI
Chain of HDAC3 (Q9Y618 395-489 partner limits assumed): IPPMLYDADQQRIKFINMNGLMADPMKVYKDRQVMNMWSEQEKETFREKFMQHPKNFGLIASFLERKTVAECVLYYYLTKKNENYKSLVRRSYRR

Chain of HDAC1 (Q13547 whole entry): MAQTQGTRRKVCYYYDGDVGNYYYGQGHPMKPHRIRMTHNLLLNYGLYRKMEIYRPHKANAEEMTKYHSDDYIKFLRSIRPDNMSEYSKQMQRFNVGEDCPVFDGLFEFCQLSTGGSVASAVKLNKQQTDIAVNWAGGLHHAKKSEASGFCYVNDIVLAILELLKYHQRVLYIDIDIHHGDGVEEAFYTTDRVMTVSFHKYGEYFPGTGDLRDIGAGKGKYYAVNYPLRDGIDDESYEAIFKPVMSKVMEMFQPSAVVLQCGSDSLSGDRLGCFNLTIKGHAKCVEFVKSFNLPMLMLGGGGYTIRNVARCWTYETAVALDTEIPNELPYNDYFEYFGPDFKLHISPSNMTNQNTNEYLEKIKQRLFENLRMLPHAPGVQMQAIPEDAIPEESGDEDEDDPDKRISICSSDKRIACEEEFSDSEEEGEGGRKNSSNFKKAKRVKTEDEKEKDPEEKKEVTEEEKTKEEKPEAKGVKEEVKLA
Chain of HDAC2 (Q92769 whole entry): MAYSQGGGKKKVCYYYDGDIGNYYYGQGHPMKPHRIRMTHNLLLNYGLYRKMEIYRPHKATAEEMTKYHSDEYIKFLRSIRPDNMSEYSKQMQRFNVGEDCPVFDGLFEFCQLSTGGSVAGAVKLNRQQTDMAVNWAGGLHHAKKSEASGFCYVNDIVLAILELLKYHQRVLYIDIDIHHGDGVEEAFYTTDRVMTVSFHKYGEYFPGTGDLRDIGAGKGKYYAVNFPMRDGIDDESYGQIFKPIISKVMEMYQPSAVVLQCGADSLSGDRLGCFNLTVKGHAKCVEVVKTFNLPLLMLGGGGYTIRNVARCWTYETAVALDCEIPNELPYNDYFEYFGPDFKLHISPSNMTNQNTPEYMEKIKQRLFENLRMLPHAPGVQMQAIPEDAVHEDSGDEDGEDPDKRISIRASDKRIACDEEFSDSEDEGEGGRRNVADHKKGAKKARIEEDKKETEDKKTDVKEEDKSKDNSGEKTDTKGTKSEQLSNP
Protocol for HDAC1: as §1
Protocol for HDAC2: as §1
Protocol for HDAC3: as §1

With `Cc1cc2nc(C(=O)NCCc3c[nH]c4ccc(O)cc34)c(=O)n(C[C@H](O)[C@H](O)[C@H](O)CO)c2cc1C` [Example 27, N-(2-(5-hydroxy-1H-indol-3-yl)ethyl)-6,7-dimethyl-3-oxo-4-((2S,3S,4R)-2,3,4,5-tetrahydroxypentyl)-3,4-dihydroquinoxaline-2-carboxamide], the “tumor volume (in words)” value with PC-3 cell lines (12 times, up to day 14, p<0.05 vs vehicle, FIG. 2) is on record as “significantly reduced tumor volume growth rate compared to group 1”. Besides, the “tumor weight (in words)” value in the series on PC-3 cell lines (tumor removed on day 12, p<0.0005 vs vehicle, FIG. 3) is “vehicle administration group (group 1) had a significantly higher tumor weight than the Example 27 compound administration group”. In addition, the remaining activity at 10 µM at HDAC2 worked out at 91.2%; at HDAC1 it was 76.2%; at HDAC3, 73.1%. Also, the “PC-3 cancer cell viability inhibition rate compared with PCI-34051” value in series [1] is listed as “superior to that of PCI-34051”. Also, the “PC-3 cell viability (in words)” value in series [1] is “effectively reduced the viability of prostate cancer cells in a concentration- and time-dependent manner”. Moreover, in series [2], the “body weight (in words)” value was “No rapid weight loss was observed”. Further, on HDAC8 [3], the “selective inhibitory effect on HDAC8 (in words)” value is “selective and excellent inhibitory activity only against HDAC8”. Further, the “inhibitory activity against HDAC8 (in words)” value against HDAC8 [4] was “inhibitory activity similar to TSA or SAHA”.

The record behind these values is US20250214947A1, “3,4-DIHYDROQUINOXALINE-2-CARBOXIMIDE DERIVATIVE COMPOUND AND PHARMACEUTICAL COMPOSITION COMPRISING SAME FOR PREVENTING OR TREATING CANCER DISEASE” (Cureverse Incorporated, priority 2022, published 2025).
